Source: ChEMBL document CHEMBL1201862, “PubChem BioAssay data set” (2004)
Active and inactive are the calls of the source.

How the values were obtained:
Streptokinase A = target: T1, Streptokinase A (Streptococcus pyogenes serotype M1, UniProt P10520); assay: viability-normalized secreted streptokinase activity reduction – plasminogen activation absorbance, OD405, dose response (AID 1914); type: functional, Streptococcus pyogenes M1 GAS;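 also: secreted streptokinase activity via plasminogen activation per viability signal from cell pellet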
T1 sequence (P10520 whole entry): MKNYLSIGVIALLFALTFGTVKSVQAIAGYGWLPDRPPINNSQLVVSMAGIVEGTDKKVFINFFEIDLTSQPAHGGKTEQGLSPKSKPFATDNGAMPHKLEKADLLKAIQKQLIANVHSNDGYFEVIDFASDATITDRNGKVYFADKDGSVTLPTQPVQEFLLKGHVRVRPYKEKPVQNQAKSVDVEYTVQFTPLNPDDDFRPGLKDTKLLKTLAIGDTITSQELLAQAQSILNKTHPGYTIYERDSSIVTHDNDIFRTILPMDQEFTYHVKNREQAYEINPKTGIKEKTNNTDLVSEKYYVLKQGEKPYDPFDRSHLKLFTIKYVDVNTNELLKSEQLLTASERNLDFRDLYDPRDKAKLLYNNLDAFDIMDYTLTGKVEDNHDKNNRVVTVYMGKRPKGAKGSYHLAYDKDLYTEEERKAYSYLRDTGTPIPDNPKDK

Streptococcus = assay: GAS UMAA2166 growth inhibition – luminescence, BacTiterGlo, counter-screen for streptokinase expression inhibitor project, dose response (AID 1915); type: functional, organism-based;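 also: potency for reduction of bacterial viability or growth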
Protein skinhead-1 = target: T2, Protein skinhead-1 (Caenorhabditis elegans, UniProt P34707); type: functional
T2 sequence (P34707 whole entry): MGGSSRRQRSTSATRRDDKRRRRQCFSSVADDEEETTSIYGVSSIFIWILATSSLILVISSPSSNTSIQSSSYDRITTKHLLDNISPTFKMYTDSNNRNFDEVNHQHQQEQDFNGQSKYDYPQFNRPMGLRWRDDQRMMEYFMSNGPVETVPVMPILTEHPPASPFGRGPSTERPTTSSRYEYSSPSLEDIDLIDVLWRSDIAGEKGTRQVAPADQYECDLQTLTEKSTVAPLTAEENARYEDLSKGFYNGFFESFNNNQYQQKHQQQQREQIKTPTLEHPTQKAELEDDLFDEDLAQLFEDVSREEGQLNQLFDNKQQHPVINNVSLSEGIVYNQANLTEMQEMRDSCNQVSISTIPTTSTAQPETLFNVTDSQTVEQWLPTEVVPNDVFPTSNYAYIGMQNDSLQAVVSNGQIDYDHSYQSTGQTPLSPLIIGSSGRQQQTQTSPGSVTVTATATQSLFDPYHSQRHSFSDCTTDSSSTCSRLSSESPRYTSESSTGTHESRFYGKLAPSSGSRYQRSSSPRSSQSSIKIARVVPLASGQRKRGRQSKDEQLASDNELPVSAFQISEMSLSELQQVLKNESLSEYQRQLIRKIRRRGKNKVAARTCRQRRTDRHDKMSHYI

BJ [1] = assay: BJ-TERT fibroblast viability loss – cell-based, RAS-independent, luminescence, dose response (AID 1933); type: functional; conditions: Homo sapiens
BJ [2] = assay: cells; type: functional, cell-based; conditions: Homo sapiens
BJ [3] = assay: BJ-TERT-LT-ST fibroblast viability loss – cell-based, RAS-independent, luminescence, dose response (AID 1935); type: functional; conditions: Homo sapiens;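 also: BJ fibroblasts immortalized with TERT plus LT and ST oncogenes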
[4] = DRD fibroblast viability loss – cell-based, non-viral oncogenic, luminescence, dose response (AID 1934); type: functional; conditions: Homo sapiens
[5] = luciferase reporter signal suppression in cells – H4 neuroglioma cells, luminescence, dose response (AID 1990); type: functional, cell-based
[6] = Luminescence Cell-Based Dose Response HTS to Identify Inhibitors of 5'UTR Stem-Loop Driven Prion Protein mRNA Translation in H4 Neuroglioblastoma Cells. [Related pubchem assays: 1827 (Project Summary), 1813 (Primary HTS)]; type: functional
[7] = alpha-synuclein stem-loop luciferase translation blockers – H4 neuroglioma cells, luminescence, confirmation (AID 1988); type: functional, cell-based
[8] = blockers of HIV-1 envelope-mediated cell-cell fusion – cherry-pick, dose response (AID 652057); type: functional, cell-based
[9] = blockers of HIV-1 ZM109 envelope-driven cell-cell fusion – HeLa effector, CEM target cells, luciferase, cherry-pick, dose response (AID 652058); type: functional, cell-based;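 also: luciferase signal from HIV-1 Env mediated cell-cell fusion of effector and target cells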
[10] = off-target signal loss in HeLa-CEM21 co-culture – HeLa F-luc CTL cells, cherry-picked, counter-screen for HIV-1 Env fusion inhibitor project, dose response (AID 652040); type: functional, cell-based;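 also: potency for signal decrease marking cytotoxic or nonspecific inhibition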
[11] = HIV-1 AD8 envelope cell-cell fusion blockers – cherry-pick, dose response (AID 652062); type: functional, cell-based;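 also: luciferase signal from cell-cell fusion driven by HIV-1 clade B AD8 Env; potency is for inhibitors of fusion seen as a drop in luminescence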
[12] = target: T3, Ubiquitin-conjugating enzyme E2 N (Homo sapiens, UniProt P61088); type: functional;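 also: Dose-response confirmation in a TR-FRET assay detecting UBC13-driven polyubiquitin chain formation, inhibition measured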
T3 sequence (P61088 whole entry): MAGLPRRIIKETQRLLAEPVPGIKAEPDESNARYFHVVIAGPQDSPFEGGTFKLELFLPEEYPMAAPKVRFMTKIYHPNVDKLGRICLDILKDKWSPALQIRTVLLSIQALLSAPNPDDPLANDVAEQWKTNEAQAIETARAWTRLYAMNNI

Nonstructural protein 1 = Nonstructural protein 1 (Influenza A virus, UniProt Q194T2); type: functional, Influenza A virus (A/California/07/2009(H1N1))
[13] = target: T4, Histone-lysine N-methyltransferase NSD2 (Homo sapiens, UniProt O96028); type: biochemical
T4 sequence (O96028 whole entry): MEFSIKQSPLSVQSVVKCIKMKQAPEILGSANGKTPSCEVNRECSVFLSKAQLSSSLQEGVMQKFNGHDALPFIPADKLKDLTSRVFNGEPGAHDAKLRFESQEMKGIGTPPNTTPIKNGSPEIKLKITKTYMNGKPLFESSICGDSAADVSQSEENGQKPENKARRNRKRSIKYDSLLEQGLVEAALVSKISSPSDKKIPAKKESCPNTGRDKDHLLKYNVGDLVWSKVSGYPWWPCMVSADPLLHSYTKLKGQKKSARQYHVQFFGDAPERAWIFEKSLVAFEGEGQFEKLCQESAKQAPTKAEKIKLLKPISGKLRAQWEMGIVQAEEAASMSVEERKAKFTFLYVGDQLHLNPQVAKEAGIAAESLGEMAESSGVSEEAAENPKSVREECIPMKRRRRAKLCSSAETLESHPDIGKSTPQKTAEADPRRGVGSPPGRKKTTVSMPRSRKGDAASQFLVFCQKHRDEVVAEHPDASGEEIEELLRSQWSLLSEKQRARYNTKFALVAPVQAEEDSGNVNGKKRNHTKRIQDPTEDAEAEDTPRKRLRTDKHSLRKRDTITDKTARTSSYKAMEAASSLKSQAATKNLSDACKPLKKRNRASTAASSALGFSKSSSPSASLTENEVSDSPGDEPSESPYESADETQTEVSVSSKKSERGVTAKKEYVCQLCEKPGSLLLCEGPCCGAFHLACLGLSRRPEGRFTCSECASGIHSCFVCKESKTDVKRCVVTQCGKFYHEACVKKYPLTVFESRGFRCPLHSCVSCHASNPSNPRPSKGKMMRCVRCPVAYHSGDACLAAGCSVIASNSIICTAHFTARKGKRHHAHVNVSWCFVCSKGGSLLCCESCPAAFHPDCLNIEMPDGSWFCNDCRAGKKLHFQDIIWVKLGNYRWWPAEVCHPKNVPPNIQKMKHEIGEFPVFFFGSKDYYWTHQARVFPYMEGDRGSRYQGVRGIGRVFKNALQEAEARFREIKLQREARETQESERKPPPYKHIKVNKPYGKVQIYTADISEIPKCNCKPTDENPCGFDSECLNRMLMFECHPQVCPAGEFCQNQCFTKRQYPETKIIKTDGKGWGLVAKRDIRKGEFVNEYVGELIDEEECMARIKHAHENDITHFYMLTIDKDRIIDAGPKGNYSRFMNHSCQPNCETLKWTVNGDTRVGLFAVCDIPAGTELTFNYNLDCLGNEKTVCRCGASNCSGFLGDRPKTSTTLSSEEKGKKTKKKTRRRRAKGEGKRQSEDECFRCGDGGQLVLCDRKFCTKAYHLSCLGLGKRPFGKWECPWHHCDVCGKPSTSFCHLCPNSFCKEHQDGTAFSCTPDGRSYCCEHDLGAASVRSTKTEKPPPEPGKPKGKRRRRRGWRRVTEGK

[14] = target: T5, Heat shock factor protein 1 (Mus musculus, UniProt P38532); assay: enhancement of HSF1-driven luciferase signal – cell-based, NIH3T3, luminescence, dose retest, confirmation (AID 435004); type: functional;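 also: stress induced by proteasome inhibitor MG132 added 30 min after compound; luciferase reporter driven by HSF1 response element in NIH3T3 cells; actives raise luminescence as potentiators of the MG132 stress response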
T5 sequence (P38532 whole entry): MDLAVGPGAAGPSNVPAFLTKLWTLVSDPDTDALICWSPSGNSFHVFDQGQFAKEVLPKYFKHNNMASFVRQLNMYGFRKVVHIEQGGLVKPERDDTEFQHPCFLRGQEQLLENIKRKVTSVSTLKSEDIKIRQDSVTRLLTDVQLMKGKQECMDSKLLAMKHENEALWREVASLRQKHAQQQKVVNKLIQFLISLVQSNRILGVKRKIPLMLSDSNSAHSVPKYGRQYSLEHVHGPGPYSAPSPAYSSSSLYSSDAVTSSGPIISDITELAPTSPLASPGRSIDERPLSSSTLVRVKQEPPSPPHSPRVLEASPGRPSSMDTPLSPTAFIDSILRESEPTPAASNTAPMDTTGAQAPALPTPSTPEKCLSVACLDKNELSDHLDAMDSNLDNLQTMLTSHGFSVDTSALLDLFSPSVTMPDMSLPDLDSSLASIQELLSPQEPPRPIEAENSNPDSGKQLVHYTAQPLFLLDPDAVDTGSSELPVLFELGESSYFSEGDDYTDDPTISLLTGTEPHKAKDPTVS

Genome polyprotein = Genome polyprotein (dengue virus type 2, UniProt P29990); assay: flavivirus cap methylation enzyme inhibition – biochemical, confirmation dose response, primary screen (AID 588689); type: functional
[15] = target: T6, Polyadenylate-binding protein 1 (Homo sapiens, UniProt P11940); assay: MLLE binding blockers, Cy5 peptide tracer – biochemical, fluorescence polarization, Cy5-PAM2 peptide, secondary, miRNA deadenylation inhibitor project, dose response (AID 602260); type: functional; conditions: read-out: IC50_Mean
[16] = target: T6, Polyadenylate-binding protein 1; assay: MLLE domain peptide-binding blockers, IC50 – biochemical, fluorescence polarization, FITC-PAM2 peptide, dose response (AID 602259); type: functional; conditions: read-out: IC50_Mean
Paired box protein Pax-8 = Paired box protein Pax-8 (Homo sapiens, UniProt Q06710); assay: PAX8 transcriptional activity inhibition in RMG-I – RMG-I cells, luciferase, cherry-pick, dose response (AID 687027); type: functional, cell-based;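 also: luciferase reporter driven by Pax8 target thyroperoxidase promoter measured by SteadyGlo luminescence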
cells [17] = type: functional, cell-based
cells [18] = type: functional, cell-based; remark: listed apart in the source

Chain of Nonstructural protein 1 (Q194T2 whole entry): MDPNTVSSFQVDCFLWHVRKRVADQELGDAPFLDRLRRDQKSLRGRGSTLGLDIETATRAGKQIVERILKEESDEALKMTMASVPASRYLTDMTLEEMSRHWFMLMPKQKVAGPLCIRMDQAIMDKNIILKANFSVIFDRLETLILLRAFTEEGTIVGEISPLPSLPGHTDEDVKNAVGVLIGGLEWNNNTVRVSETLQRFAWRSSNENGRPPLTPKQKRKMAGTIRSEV
Chain of Paired box protein Pax-8 (Q06710 whole entry): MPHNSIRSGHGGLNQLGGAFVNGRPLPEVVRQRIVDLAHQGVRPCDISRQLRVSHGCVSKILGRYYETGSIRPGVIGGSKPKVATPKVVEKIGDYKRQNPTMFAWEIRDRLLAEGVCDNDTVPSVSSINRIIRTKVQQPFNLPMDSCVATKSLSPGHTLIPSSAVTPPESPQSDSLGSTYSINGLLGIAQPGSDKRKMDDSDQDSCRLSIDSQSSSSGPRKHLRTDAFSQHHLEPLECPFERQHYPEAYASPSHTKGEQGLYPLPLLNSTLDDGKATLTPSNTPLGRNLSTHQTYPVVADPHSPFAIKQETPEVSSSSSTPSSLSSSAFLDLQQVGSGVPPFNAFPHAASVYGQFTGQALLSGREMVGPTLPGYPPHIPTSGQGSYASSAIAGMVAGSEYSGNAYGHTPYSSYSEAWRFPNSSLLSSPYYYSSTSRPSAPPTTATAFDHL
Chain of Genome polyprotein (P29990 2492-3391 limits assumed): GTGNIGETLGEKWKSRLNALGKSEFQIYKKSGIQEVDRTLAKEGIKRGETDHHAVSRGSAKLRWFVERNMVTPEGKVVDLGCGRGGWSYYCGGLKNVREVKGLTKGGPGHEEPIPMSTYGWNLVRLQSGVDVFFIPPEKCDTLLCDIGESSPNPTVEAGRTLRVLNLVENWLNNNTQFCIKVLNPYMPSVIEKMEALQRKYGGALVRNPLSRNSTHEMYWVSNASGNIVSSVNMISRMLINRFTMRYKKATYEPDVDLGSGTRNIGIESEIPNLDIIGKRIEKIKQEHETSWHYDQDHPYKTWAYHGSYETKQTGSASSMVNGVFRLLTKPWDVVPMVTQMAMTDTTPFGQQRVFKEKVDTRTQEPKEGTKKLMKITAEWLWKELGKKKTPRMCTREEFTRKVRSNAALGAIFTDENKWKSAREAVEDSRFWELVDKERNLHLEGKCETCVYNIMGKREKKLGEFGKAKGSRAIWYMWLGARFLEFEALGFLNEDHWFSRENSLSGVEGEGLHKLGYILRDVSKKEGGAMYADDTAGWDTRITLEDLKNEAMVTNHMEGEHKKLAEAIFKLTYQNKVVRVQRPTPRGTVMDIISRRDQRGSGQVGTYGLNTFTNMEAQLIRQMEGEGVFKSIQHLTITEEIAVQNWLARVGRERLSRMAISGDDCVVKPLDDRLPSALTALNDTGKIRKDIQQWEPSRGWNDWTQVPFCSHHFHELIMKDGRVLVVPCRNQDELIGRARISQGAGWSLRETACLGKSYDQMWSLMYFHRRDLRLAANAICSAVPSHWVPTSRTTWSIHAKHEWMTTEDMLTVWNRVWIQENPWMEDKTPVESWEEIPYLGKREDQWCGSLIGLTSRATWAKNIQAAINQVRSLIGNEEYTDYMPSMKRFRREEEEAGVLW
T6 sequence (P11940 whole entry, the tested form may be a part): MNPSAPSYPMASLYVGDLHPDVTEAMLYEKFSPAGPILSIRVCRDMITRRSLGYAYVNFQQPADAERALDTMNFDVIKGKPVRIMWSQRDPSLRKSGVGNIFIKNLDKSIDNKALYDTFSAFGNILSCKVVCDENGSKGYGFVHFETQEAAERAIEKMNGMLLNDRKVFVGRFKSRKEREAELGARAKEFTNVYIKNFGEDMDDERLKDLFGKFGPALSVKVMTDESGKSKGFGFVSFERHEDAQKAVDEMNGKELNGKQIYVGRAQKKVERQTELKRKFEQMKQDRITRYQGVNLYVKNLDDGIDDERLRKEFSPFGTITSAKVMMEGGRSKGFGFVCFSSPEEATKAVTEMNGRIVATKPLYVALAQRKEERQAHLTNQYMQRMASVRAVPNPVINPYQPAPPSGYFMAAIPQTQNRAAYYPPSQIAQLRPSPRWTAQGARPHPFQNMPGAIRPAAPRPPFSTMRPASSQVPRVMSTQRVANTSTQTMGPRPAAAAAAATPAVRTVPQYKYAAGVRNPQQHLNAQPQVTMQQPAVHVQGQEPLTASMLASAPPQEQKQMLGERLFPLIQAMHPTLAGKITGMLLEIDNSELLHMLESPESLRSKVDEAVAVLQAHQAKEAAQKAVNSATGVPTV

## CN(C)c1nc(SCc2ccccc2Cl)nc2c1CCCC2
Streptokinase A
  EC50: 14 µM (active)
Streptococcus
  EC50: > 150 µM (not active)
Protein skinhead-1
  IC50: > 100 µM (inactive)

## COc1ccc(-n2c(SCC(=O)c3c(N)n(C)c(=O)n(C)c3=O)nc3ccccc32)cc1
BJ [1]
  EC50: > 150 µM (not active)
BJ [2]
  EC50: > 150 µM (not active)
BJ [3]
  EC50: > 150 µM (inconclusive)
[4]
  EC50: > 150 µM (not active)

## O=C(NCc1ccco1)c1ccc(Cn2c(=O)c3ccccc3n(Cc3cccc(Cl)c3)c2=O)cc1
[5]
  EC50: 11.8 µM (active)
[6]
  EC50: > 120 µM (not active)
[7]
  EC50: 16.5 µM (active)
[8]
  AC50: 1.83 µM (active)
[9]
  AC50: 2.76 µM (active)
[10]
  AC50: 1.78 µM (active)
[11]
  AC50: 1.34 µM (active)

## Cc1nc2ccccc2c(=O)n1NC(=O)/C=C/c1ccc(Br)cc1
[12]
  IC50: > 20 µM (inactive)

## Cc1cc2ccccn2c1C(=O)c1cc([N+](=O)[O-])cc([N+](=O)[O-])c1
Nonstructural protein 1
  IC50: 40.7 µM (active)

## CCCCCCNc1c([N+](=O)[O-])cc(C)cc1[N+](=O)[O-]
[13]
  AC50: > 20 µM (inactive)

## C=C(C)c1cccc(C(C)(C)NC(=O)Nc2ccc(Cl)cn2)c1
[8]
  AC50: 50.7 µM (active)
[9]
  AC50: 0.604 µM (active)
[10]
  AC50: 16.5 µM (active)
[11]
  AC50: 12.8 µM (active)

## O=C(O)c1cc([N+](=O)[O-])c(NCCC2=CCCCC2)c([N+](=O)[O-])c1
[14]
  EC50: > 260 µM (inactive)
Genome polyprotein
  IC50: 72.8 µM (active)

## Oc1cccc2c(-c3nn[nH]n3)ccnc12
Nonstructural protein 1
  IC50: 7.24 µM (active)

## O=C(CSc1nc(O)c(Cc2ccccc2)c(O)n1)Nc1nnc(SCc2ccccc2)s1
Genome polyprotein
  IC50: 43.3 µM (active)
[15]
  IC50: > 66 µM (inactive)
[16]
  IC50: > 66 µM (inactive)

## COc1cccc(/C=N/NC(=O)C(=O)NCc2cccnc2)c1O
Nonstructural protein 1
  IC50: 8.2 µM (active)

## Cc1ccc(OCCCCNC(C)c2ccccc2)c(C)c1 (configuration not stated)
[8]
  AC50: 3.69 µM (active)
[9]
  AC50: 5.29 µM (active)
[10]
  AC50: 2.94 µM (active)
[11]
  AC50: 5.36 µM (active)

## C[C@@H]1CCCCO[C@H](CN(C)C(=O)Nc2ccc(C(F)(F)F)cc2)[C@H](C)CN([C@@H](C)CO)C(=O)c2cc(NS(=O)(=O)c3ccc(Cl)cc3)ccc2O1
Paired box protein Pax-8
  AC50: 16.4 µM (active)

## O=C(O)c1ccccc1N=N/C(=N/Nc1cc(S(=O)(=O)O)ccc1O)c1ccccc1
Nonstructural protein 1
  IC50: 21.9 µM (active)
Genome polyprotein
  IC50: 19.1 µM (active)
[13]
  AC50: > 20 µM (inactive)

## CCOC(=O)C1=CN(Cc2cccc(-c3cccnc3)c2)S(=O)(=O)N(C)C1C (configuration not stated)
Paired box protein Pax-8
  AC50: 59.2 µM (active)

## O=C(COC(=O)c1cccc(S(=O)(=O)N2CCOCC2)c1)Nc1ncc(C(F)(F)F)cc1Cl
Cells [17]
  EC50: > 350 µM (not active)
Cells [18]
  EC50: > 350 µM (not active)
Protein skinhead-1
  IC50: > 100 µM (inactive)

## O=C1c2ccccc2C(=O)c2c1cccc2N1CCN(Cc2ccccc2)CC1
Nonstructural protein 1
  IC50: 7.08 µM (active)

## OC[C@H]1O[C@@H](n2cnc3c(NCc4ccco4)ncnc32)[C@H](O)[C@@H]1O [KINETIN RIBOSIDE]
Paired box protein Pax-8
  AC50: 2.25 µM (active)
